Data as given in patent US11166947B2, “Effective dosing of a child for the treatment of ADHD with methylphenidate” (Neos Therapeutics, LP, priority 2016, dated 2021).
≈ marks a conversion by molar mass, not a printed value.

Tested on: pediatric patients with ADHD
Assay: Integrated PKPD model fit to SKAMP total score measurements from the Day 7 classroom evaluation
Type: in vivo, human
Conditions: base (final) PKPD model estimate, 81 pediatric patients
Source text: This example describes the development of a pharmacokinetic-pharmacodynamic model for the therapeutic effect of a particular methylphenidate formulation and its testing on a population of pediatric patients with ADHD. The drug formulation tested in this example is designated MPH XR-ODT and described in U.S. Publication No. 2014/0030348, which is incorporated herein by reference.
The structural PK model for a plasma concentration following administration of the stimulant was described by two parallel inputs into a central compartment and linear elimination from the central compartment.
Body weight appears as a covariate of CL and V which was included in the model in the following way: CLi=tvCL*Weight^0.655 Equation 1 Vi=tvV*Weight^0.670 Equation 2 where CL, and V, are the clearance and volume of distribution parameters for individual “i”, tvCL and tvV are the typical population clearance and volume of distribution parameters, and weight is body weight in kg. Model parameters were determined using nonlinear mixed-effects modeling with first-order conditional maximum likelihood estimation using Phoenix NLME (Version 6.3).
This phenomenon was readily obvious in the patients that were assigned to the placebo treatment arm. Therefore, the PD model required a drug effect component and a placebo effect component. […]

In the case of `COC(=O)C(c1ccccc1)C1CCCCN1` (centres unmarked) [methylphenidate], the EC50 (Homo sapiens, simulated plasma concentrations, read-out: EC50, concentration of methylphenidate required to achieve 50% of the maximal reduction in SKAMP total score) was 0.0142 µg/mL (≈ 0.061 µM) and the “Emax, maximum reduction in SKAMP total score with administration of methylphenidate” value was 38.1.
